Experiment: Decomposition products of NK-104 and fluvastatin in aqueous solution of pH 3, analyzed by HPLC
Type: physicochemical
Conditions: aqueous solution pH 3, 40° C.
Experimental: Decomposition products of NK-104 were analyzed by HPLC after incubation for two days at 40° C. in aqueous solution of pH 3. […] The decomposition products of fluvastatin were also analyzed for comparison.
The conditions under which NK-104 and Fluvastatine decomposition products were analyzed are as follows:
HPLC system: Type LC-10 (Shimadz, Japan)
Column: DEVELOSIL ODS-HG-5 (NOMURA CHEM., Japan)
Mobil Phase: MeOH/0.02 mol/L phosphate buffer (pH 3)=7/3
Sample: NK-104 or fluvastatin/pH 3/40° C., 2 days
Detector: SPD-MLOAVP, UV 245 mm

Q: What does the source list for O=C(O)C[C@H](O)C[C@H](O)/C=C/c1c(C2CC2)nc2ccccc2c1-c1ccc(F)cc1 [NK-104, (E)-3,5-dihydroxy-7-[4′-4 ″-fluorophehyl-2 ′-cyclopropyl-quinolin-3′-yl]-6-heptenoic acid]?
A: Quantity of decomposition products (2 days): a small quantity of one type of decomposition product; Decomposition products (types) (two days): a single product, a lactonized form of NK-104
